According to ChEMBL document CHEMBL4392822, “HSP60/10 chaperonin systems are inhibited by a variety of approved drugs, natural products, and known bioactive molecules” (Bioorg Med Chem Lett, 2019):

How the values were obtained:
[1] = target: T1, Thiosulfate sulfurtransferase (Homo sapiens, UniProt Q16762); format: ADME;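 note: native rhodanese of unspecified species, enzyme activity read after 45 min by spectrophotometric detection of Fe(SCN)3 colour, IC50 reflects activity reduction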
T1 sequence (Q16762 whole entry): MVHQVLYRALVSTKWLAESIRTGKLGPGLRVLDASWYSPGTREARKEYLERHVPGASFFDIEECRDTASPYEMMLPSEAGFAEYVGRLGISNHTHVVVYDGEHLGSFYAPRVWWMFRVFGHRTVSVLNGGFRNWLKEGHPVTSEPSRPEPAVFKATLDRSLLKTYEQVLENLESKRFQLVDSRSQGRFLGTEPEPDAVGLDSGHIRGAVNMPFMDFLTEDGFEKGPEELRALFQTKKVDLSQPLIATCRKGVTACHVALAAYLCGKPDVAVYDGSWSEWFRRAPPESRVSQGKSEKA
Description: Inhibition of native rhodanese (unknown origin) assessed as reduction in rhodanese enzyme activity after 45 mins by Fe(SCN)3 dye based spectrometric analysis

[2] = target: HSP60/HSP10 (Homo sapiens, UniProt P10809);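 note: His-tagged human HSP60 with HSP10 refolding denatured MDH, read as MDH activity on mesoxalate by malachite green spectrometry, inhibition of refolding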
Description: Inhibition of human N-terminal octa-His-tagged HSP60 expressed in Escherichia coli Rosetta(DE3) pLysS/human HSP10 expressed in Escherichia coli Rosetta(DE3) assessed as reduction in HSP60/HSP10-mediated denatured MDH refolding by measuring MDH enzyme activity using sodium mesoxalate as substrate after 40 to 60 mins by malachite green dye based spectrometric analysis

[3] = target: T2, E. coli GroEL/ES (Escherichia coli, UniProt P0A6F5)
Description: Inhibition of Escherichia coli GroEL expressed in Escherichia coli DH5alpha/Escherichia coli GroES expressed in Escherichia coli BL21 (DE3) assessed as reduction in GroEL/GroES-mediated denatured rhodanese refolding by measuring rhodanese enzyme activity after 45 mins by Fe(SCN)3 dye based spectrometric analysis

[4] = target: T2, E. coli GroEL/ES; remark: listed apart in the source
Description: Inhibition of Escherichia coli GroEL expressed in Escherichia coliDH5alpha/Escherichia coli GroES expressed in Escherichia coli BL21 (DE3) assessed as reduction in GroEL/GroES-mediated denatured soluble pig heart MDH refolding by measuring MDH enzyme activity using sodium mesoxalate as substrate after 20 to 40 mins by malachite green dye based spectrometric analysis

[5] = target: Chaperonin GroEL (Escherichia coli (strain K12), UniProt P0A6F5);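 note: inhibition of GroEL ATPase activity with ATP as substrate, 60 min incubation, spectrometric read-out, recombinant enzyme produced in Escherichia coli DH5alpha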
Chain of Chaperonin GroEL (P0A6F5 whole entry): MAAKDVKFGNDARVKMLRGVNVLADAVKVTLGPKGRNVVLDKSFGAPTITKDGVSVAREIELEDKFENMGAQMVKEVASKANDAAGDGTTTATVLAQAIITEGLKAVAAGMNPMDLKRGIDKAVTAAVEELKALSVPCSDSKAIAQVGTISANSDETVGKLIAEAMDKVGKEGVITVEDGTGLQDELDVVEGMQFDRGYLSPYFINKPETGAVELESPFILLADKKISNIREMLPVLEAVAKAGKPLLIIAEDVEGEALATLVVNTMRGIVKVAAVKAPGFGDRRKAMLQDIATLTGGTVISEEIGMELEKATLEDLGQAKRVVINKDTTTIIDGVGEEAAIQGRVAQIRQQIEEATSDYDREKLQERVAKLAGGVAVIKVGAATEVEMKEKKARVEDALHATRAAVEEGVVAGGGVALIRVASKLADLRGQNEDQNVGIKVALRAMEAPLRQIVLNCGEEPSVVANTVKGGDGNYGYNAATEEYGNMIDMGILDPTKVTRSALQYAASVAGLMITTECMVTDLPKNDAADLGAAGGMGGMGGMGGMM
Description: Inhibition of ATPase activity of Escherichia coli GroEL expressed in Escherichia coliDH5alpha incubated for 60 mins using ATP by spectrometric analysis

Chain of HSP60/HSP10 (P10809 whole entry): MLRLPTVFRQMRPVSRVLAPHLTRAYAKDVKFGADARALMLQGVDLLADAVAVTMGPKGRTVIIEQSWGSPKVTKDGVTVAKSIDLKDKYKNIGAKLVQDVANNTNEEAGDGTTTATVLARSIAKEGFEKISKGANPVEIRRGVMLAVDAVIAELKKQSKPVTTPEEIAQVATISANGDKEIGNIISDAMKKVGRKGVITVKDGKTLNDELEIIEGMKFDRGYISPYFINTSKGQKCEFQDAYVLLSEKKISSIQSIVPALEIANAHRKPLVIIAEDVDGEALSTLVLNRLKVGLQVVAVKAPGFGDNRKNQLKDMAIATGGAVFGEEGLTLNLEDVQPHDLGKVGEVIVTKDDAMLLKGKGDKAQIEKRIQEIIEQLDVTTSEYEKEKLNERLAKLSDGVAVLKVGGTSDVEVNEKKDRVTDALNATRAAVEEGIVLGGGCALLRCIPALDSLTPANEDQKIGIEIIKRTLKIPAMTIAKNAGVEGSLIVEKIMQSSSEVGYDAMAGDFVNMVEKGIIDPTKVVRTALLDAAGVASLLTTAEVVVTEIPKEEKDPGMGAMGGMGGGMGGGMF
Chain of HSP60/HSP10 (P61604 whole entry, further chain): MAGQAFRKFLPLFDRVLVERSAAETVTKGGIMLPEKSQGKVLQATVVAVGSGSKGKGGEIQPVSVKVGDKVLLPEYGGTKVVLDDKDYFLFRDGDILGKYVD
T2 sequence (P0A6F5 whole entry, looked up): as the sequence (P0A6F5 whole entry) above

Compound | IC50 [1] | IC50 [2] | IC50 [3] | IC50 [4] | IC50 [5]
CCOc1nc2cccc(C(=O)O)c2n1Cc1ccc(-c2ccccc2-c2nnn[nH]2)cc1 | > 100 µM | > 100 µM | > 250 µM | > 100 µM | –
CCCCN1CCC(COC(=O)c2cc(Cl)c(N)c3c2OCCO3)CC1 | > 100 µM | > 100 µM | > 250 µM | > 100 µM | –
COc1ccc(-c2ccc3cc(C(=O)O)ccc3c2)cc1C12CC3CC(CC(C3)C1)C2 | > 100 µM | 2.3 µM | 5.1 µM | 2.1 µM | > 250 µM
Cc1cc2c(C(C)C)c(O)c(O)c(C=O)c2c(O)c1-c1c(C)cc2c(C(C)C)c(O)c(O)c(C=O)c2c1O | 11 µM | 1.2 µM | 0.43 µM | 0.66 µM | > 250 µM
CC[C@H](C)C1O[C@]2(C=C[C@@H]1C)C[C@@H]1C[C@@H](C/C=C(\C)[C@@H](O[C@H]3C[C@H](OC)[C@@H](O[C@H]4C[C@H](OC)[C@H](NC(C)=O)[C@H](C)O4)[C@H](C)O3)[C@@H](C)/C=C/C=C3\CO[C@@H]4[C@H](O)C(C)=C[C@@H](C(=O)O1)[C@]34O)O2 (some centres undefined) | > 100 µM | 17 µM | 38 µM | 11 µM | > 250 µM
COc1cc(-c2ccc(/N=N/c3ccc4c(S(=O)(=O)O)cc(S(=O)(=O)O)c(N)c4c3O)c(OC)c2)ccc1/N=N/c1ccc2c(S(=O)(=O)O)cc(S(=O)(=O)O)c(N)c2c1O | 8.5 µM | – | 2 µM | 3.9 µM | –
CCCCCCCCCCCCCCCCC(C(=O)O)C(O)(CC(=O)O)C(=O)O (centres undefined) | > 100 µM | 4 µM | 8.9 µM | 3.5 µM | > 250 µM
O=C(/C=C/c1ccccc1)c1ccc(O)cc1 [4'-HYDROXYCHALCONE] | > 100 µM | 20 µM | 56 µM | 21 µM | > 250 µM
COc1ccc(C(=O)/C=C/c2ccccc2)cc1 [4'-METHOXYCHALCONE] | > 100 µM | 16 µM | 30 µM | 13 µM | > 250 µM
O=C(/C=C/c1ccc(O)cc1)c1ccccc1 [4-HYDROXYCHALCONE] | > 100 µM | 22 µM | 40 µM | 21 µM | > 250 µM
CCCCCCCCCc1ccc(O)cc1 [4-NONYLPHENOL] | 72 µM | 9.5 µM | 29 µM | 12 µM | > 250 µM
CC[C@H](C)[C@H]1O[C@]2(C=C[C@@H]1C)C[C@@H]1C[C@@H](C/C=C(\C)[C@@H](O[C@H]3C[C@H](OC)[C@@H](O[C@H]4C[C@H](OC)[C@@H](O)[C@H](C)O4)[C@H](C)O3)[C@@H](C)/C=C/C=C3\CO[C@@H]4[C@H](O)C(C)=C[C@@H](C(=O)O1)[C@]34O)O2 [ABAMECTIN COMPONENT B1A] | > 100 µM | 15 µM | 32 µM | 9.8 µM | > 250 µM
CC(C)(C)NCC(O)c1ccc(O)c(CO)c1 (centres undefined) [ALBUTEROL] | > 100 µM | > 100 µM | > 250 µM | > 100 µM | –
CCCCC/C=C\C/C=C\C/C=C\C/C=C\CCCC(=O)O [ARACHIDONIC ACID] | > 100 µM | 4.5 µM | 18 µM | 7.3 µM | > 250 µM
CCCCCCCCCCCCCCCC(=O)OC[C@H](O)[C@H]1OC(=O)C(O)=C1O [ASCORBYL PALMITATE] | 53 µM | 3.1 µM | 8.5 µM | 3.5 µM | 177 µM
O=C(O)C1=CC(=C(c2ccc(O)c(C(=O)O)c2)c2ccc(O)c(C(=O)O)c2)C=CC1=O [AURINTRICARBOXYLIC ACID] | > 100 µM | 3.2 µM | 0.57 µM | 0.9 µM | > 250 µM

Compound | IC50 [1] | IC50 [2] | IC50 [3] | IC50 [4] | IC50 [5]
CCc1oc2ccccc2c1C(=O)c1cc(Br)c(O)c(Br)c1 [BENZBROMARONE] | > 100 µM | 9.1 µM | 49 µM | 18 µM | > 250 µM
Cc1cc(C(C#N)c2ccc(Cl)cc2)c(Cl)cc1NC(=O)c1cc(I)cc(I)c1O (centres undefined) [CLOSANTEL] | > 100 µM | 2.8 µM | 2 µM | – | > 250 µM
C=C1CC[C@H](O)C/C1=C/C=C1\CCC[C@]2(C)[C@@H]([C@H](C)/C=C/[C@H](C)C(C)C)CC[C@@H]12 [ERGOCALCIFEROL] | – | 45 µM | 41 µM | 28 µM | > 250 µM
CC1=NCCc2c1[nH]c1cc(O)ccc21 [HARMALOL] | – | > 100 µM | – | > 100 µM | > 250 µM
O=C1C=C2CC3(O)COc4c(ccc(O)c4O)C3=C2C=C1O (centres undefined) [HEMATEIN] | 12 µM | 3.6 µM | – | 1.8 µM | > 250 µM
C[C@H](CCC(=O)O)[C@H]1CC[C@H]2[C@@H]3CC[C@@H]4C[C@H](O)CC[C@]4(C)[C@H]3CC[C@]12C [LITHOCHOLIC ACID] | > 100 µM | 10 µM | 59 µM | – | > 250 µM
Nc1ccc(O)c(C(=O)O)c1 [MESALAMINE] | 0.28 µM | – | – | – | –
CN(C)c1ccc2nc3ccc(=[N+](C)C)cc-3sc2c1 [METHYLENE BLUE] | 6.1 µM | > 100 µM | – | – | –
CC(=O)O[C@H]1C(=O)[C@@]2(C)[C@H]([C@H](OC(=O)c3ccccc3)[C@]3(O)C[C@H](OC(=O)[C@H](O)[C@@H](NC(=O)c4ccccc4)c4ccccc4)C(C)=C1C3(C)C)[C@]1(OC(C)=O)CO[C@@H]1C[C@@H]2O [PACLITAXEL] | – | > 100 µM | 114 µM | 56 µM | > 250 µM
COc1cc(NC(C)CCCN)c2ncccc2c1 (centres undefined) [PRIMAQUINE] | 2.9 µM | > 100 µM | – | – | –
Cc1cc2nc3c(=O)[nH]c(=O)nc-3n(C[C@H](O)[C@H](O)[C@H](O)COP(=O)(O)O)c2cc1C [RIBOFLAVIN 5'-PHOSPHATE SODIUM] | 0.38 µM | – | 0.77 µM | 85 µM | > 250 µM
Cc1cc2nc3c(=O)[nH]c(=O)nc-3n(C[C@H](O)[C@H](O)[C@H](O)CO)c2cc1C [RIBOFLAVIN] | – | > 100 µM | 18 µM | > 100 µM | > 250 µM
Cc1ccc(C(=O)Nc2ccc(S(=O)(=O)O)c3cc(S(=O)(=O)O)cc(S(=O)(=O)O)c23)cc1NC(=O)c1cccc(NC(=O)Nc2cccc(C(=O)Nc3cc(C(=O)Nc4ccc(S(=O)(=O)O)c5cc(S(=O)(=O)O)cc(S(=O)(=O)O)c45)ccc3C)c2)c1 [SURAMIN] | > 100 µM | 7.2 µM | – | – | > 250 µM
C=C(NC(=O)C(=C)NC(=O)c1csc(C2=N[C@@H]3c4csc(n4)[C@H]4NC(=O)c5csc(n5)[C@H]([C@](C)(O)[C@@H](C)O)NC(=O)[C@H]5CSC(=N5)/C(=C/C)NC(=O)[C@H]([C@@H](C)O)NC(=O)c5csc(n5)[C@]3(CC2)NC(=O)[C@H](C)NC(=O)C(=C)NC(=O)[C@H](C)NC(=O)[C@H]([C@@H](C)CC)N[C@@H]2C=Cc3c([C@H](C)O)cc(nc3[C@H]2O)C(=O)O[C@@H]4C)n1)C(N)=O [THIOSTREPTON] | > 100 µM | 13 µM | – | 6.8 µM | > 250 µM
CC1=C(/C=C/C(C)=C/C=C/C(C)=C/C(=O)O)C(C)(C)CCC1 [TRETINOIN] | – | 5.3 µM | 21 µM | 6.7 µM | > 250 µM
IVERMECTIN | > 100 µM | – | – | – | > 250 µM
